Article PMC8636635 (Communications Biology, 2021)

Biological target: Protein 3a (Severe acute respiratory syndrome coronavirus 2, UniProt P0DTC3)
Experiment: two-electrode voltage clamp, X. laevis oocytes
Conditions: read-out: % block at 10 μM

Protein 3a, sequence (P0DTC3 whole entry): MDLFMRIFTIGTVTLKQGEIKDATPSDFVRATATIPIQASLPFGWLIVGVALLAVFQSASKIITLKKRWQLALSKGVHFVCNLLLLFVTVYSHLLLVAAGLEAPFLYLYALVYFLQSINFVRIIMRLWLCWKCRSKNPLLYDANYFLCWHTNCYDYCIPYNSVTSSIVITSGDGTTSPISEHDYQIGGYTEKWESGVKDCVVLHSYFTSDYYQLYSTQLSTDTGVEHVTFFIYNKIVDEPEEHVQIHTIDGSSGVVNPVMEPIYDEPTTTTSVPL

c1ccc2c(c1)Cc1ccccc1O2 [xanthene]
inhibition at 10 µM: 20%
